Laboratory results published in patent US11352382B2, “Mito-lonidamine, compositions and methods of use” (THE MEDICAL COLLEGE OF WISCONSIN, INC., priority 2018, dated 2022).
Entries after “also recorded” stand apart in the source; their conditions may differ.

Assays:
[1] = system: mitochondrial complexes I and II; experiment: Inhibition of mitochondrial complexes I and II, stated jointly; assay type: cell-based, human; details: for fold potency compared with LON/LDN, complexes I and II: H2030BrM3 lung cancer cells
Description: (§1) LON and Mito-LON inhibit mitochondrial complex I activity. Mito-LON inhibited cellular respiration (oxygen consumption rate, OCR) at >100-fold lower concentration than LON in intact lung cancer cells (FIG. 9). Both basal respiration and the response to mitochondrial stressors (oligomycin, dinitrophenol) were diminished by Mito-LON (not shown). To investigate the mechanism of mitochondrial inhibition, we measured the activity of mitochondrial complexes in H2030BrM3 cells (NSCLC cell line). The cell membrane was permeabilized, and OCR was measured upon addition of substrates and inhibitors of mitochondrial complexes I-IV (FIG. 9A). These studies established the optimal use of permeabilized cells for complex activity assays.^54 Next, cells were pretreated with LON and Mito-LON for 24 h and experiments performed as in FIG. 9A. […] We hypothesize that inhibition of mitochondrial complexes I and II is the predominant mechanism for antiproliferative effects of Mito-LON on lung cancer cells.

[2] = system: luciferase-expressing H2030BrM3 cells in Nod/Scid mice; experiment: Lung cancer brain metastasis model, intra-cardiac injection, bioluminescence; assay type: in vivo, mouse; details: 7.5 μmol/kg oral gavage
Method: Mito-LON inhibits lung cancer brain metastasis in Nod/Scid mice. Preliminary experiments assessed the effect of Mito-LON, and its enhanced potency vs. LON, on brain metastasis in Nod/Scid mice in which luciferase-expressing H2030BrM3 cells were injected via intra-cardiac insertion. To ensure the accuracy of injection and precision in the quantity of the cells injected, we used high-resolution echocardiography to guide the needle into the left ventricle. In FIG. 25A, the needle's positioning is clearly discernable. Mice were imaged for firefly luciferase expression (150 μg/g D-luciferin) using an IVIS 100 imaging system at multiple time points post-injection. Regions of interest were defined manually over the brain, and LivingImage and Igor image analysis software were used to determine total photon flux. One day after engrafting the H2030BrM3 cells in arterial circulation (FIG. 19A), LON or Mito-LON (7.5 μmol/kg each) were administered by oral gavage, tumor growth was monitored by bioluminescence, and ex vivo GFP expression and H&E staining were determined at the end point. H2030BrM3 cells rapidly colonized in the cerebrum and cerebellum (FIG. 25B).

[3] = system: H2030 and H2030BrM3 cells; experiment: Apoptosis markers in treated cells; assay type: cell-based, human
Description: Mito-LON's effects on inducing apoptosis in human lung cancer cell lines and their lung-derived brain metastatic lines. Results from Mito-LON-treated H2030 and H2030BrM3 cells (FIG. 20) supports cell death induction is mainly via autophagy rather than caspase-dependent apoptosis.

mitochondrial Complex I [4] = experiment: Activity of mitochondrial complexes in permeabilized tumor cells (OCR), pancreatic cancer cells; assay type: cell-based, human
Method: To investigate the mechanism of mitochondrial inhibition, we measured the activity of mitochondrial complexes in tumor cells. The cell membrane was permeabilized, and OCR was measured upon addition of substrates and inhibitors of mitochondrial complexes I-II.

Pancreatic cancer cells = experiment: Anti-proliferative effects in pancreatic cancer cells (number of cells over time); assay type: cell-based, human
Method: Pancreatic cancer cells were treated with either LND or Mito-LND at varying concentrations and the number of cells was assayed over time.

mitochondrial Complex I [5] = experiment: Mitochondrial complex I activity (OCR) in permeabilized H2030BrM3 cells after 24 h pretreatment; assay type: cell-based, human
Description: as §1

[6] = system: H2030BrM3 orthotopic lung adenocarcinoma in nude mice; experiment: Orthotopic lung tumor mouse model; assay type: in vivo
Method: Inhibitory effects of Mito-LON in an orthotopic lung tumor mouse model. We conducted a pilot study using an orthotopic model of lung adenocarcinoma (H2030BrM3 cells) in nude mice. Cells (1×10^6 cells/50 μg of growth factor-reduced Matrigel in 50 μL of RPMI-1640) were injected into the lung. One week after injection, mice were treated with the same dose of LON or Mito-LON (7.5 μmol/kg), or vehicle (corn oil), by oral gavage 5 times/wk for 3 wks.

H2030BrM3 cells [7] = experiment: Cell proliferation, IncuCyte Live-Cell Imaging Analyzer (cell confluence); assay type: cell-based; details: Homo sapiens, H2030-BrM3, read-out: IC50, cell proliferation
Method: In contrast, Mito-LON (1.2-2.7 μM) targets mitochondrial complexes I and II (FIG. 9); its mitochondrial effects are supported by the compartment-selective oxidation of mitochondrial Prx3 (FIG. 13). The anti-proliferative effects of Mito-LON and LON were compared in H2030BrM3 cells.

mitochondrial complex II = biological target: T1, mitochondrial complex II (Homo sapiens, UniProt O14521+P21912+P31040+Q99643); experiment: Mitochondrial complex II activity (OCR) in permeabilized H2030BrM3 cells after 24 h pretreatment; assay type: cell-based
T1 construct: we measured the activity of mitochondrial complexes in H2030BrM3 cells (NSCLC cell line); endogenous in cells; host or cells: H2030BrM3
T1 sequence (P31040 43-664): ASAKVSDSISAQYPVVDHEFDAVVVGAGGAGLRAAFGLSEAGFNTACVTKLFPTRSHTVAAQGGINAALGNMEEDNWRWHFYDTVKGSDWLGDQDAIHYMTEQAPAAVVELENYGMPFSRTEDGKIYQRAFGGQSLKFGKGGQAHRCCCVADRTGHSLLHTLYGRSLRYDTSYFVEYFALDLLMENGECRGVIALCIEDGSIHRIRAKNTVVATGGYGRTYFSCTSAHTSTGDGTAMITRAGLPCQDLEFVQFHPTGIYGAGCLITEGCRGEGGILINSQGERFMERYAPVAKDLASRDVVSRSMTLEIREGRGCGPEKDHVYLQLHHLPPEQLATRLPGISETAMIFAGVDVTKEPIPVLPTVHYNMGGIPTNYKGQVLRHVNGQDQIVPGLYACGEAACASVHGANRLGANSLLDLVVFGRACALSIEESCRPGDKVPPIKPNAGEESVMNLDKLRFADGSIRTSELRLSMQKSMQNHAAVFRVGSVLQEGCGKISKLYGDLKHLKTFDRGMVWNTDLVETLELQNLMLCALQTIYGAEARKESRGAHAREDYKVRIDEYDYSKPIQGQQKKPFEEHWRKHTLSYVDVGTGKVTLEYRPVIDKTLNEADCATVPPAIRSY
T1 sequence (P21912 29-280): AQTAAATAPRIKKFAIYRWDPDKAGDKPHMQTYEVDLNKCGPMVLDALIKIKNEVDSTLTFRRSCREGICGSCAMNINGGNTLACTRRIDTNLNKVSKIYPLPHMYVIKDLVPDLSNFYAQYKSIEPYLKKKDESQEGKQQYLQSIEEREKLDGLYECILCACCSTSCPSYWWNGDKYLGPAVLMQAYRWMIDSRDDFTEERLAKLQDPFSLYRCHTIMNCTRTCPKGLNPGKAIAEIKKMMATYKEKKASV
T1 sequence (Q99643 30-169): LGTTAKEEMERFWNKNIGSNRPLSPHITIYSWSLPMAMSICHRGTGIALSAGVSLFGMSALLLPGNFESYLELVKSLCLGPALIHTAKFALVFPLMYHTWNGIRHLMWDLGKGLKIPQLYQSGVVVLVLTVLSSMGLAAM
T1 sequence (O14521 57-159): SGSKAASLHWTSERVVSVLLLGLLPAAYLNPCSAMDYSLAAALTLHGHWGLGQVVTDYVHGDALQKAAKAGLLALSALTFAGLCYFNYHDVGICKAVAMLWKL
Description: as §1

[8] = system: phosphorylated ERK and AKT in H2030BrM3 cells; experiment: Receptor tyrosine kinase assay and Western blots of ERK and AKT phosphorylation; assay type: cell-based, human
Description: Role of HK2 and additional possible signaling events that contribute to the effects of Mito-LON. […] This could contribute to their effects as many cancers have constitutive ERK activation which promotes survival and proliferation, and ERK1 can play an important role in regulating mitochondrial activity, apoptosis, proliferation and migration. […] AKT is another pro-survival factor that is constitutively activated (phosphorylated) in many cancers.

H2030BrM3 cells [9] = experiment: Cellular ROS production, HPLC-based analysis of hydroethidine (HE) oxidation; assay type: cell-based, human; details: for ROS generation in lung cancer cells: concentration not given
Description: Inhibition of mitochondrial respiration results in increased O2^⋅− and other oxidants.

[10] = system: PC9BrM3 and H2030BrM3 brain metastasis lung cancer cell lines; experiment: Boyden chamber (transwell) invasion assay; assay type: cell-based; details: Homo sapiens, H2030-BrM3, read-out: inhibitory effect on invasion when used alone
Description: Mito-LON inhibits migration and invasion of brain metastatic human lung cancer cells. To investigate the potential of Mito-LON and LON for lung cancer metastasis, we first tested its effects in vitro via the Boyden chamber invasion assay using PC9BrM3 and H2030BrM3 brain metastasis lung cancer cell lines.

[11] = 7.5 μmol/kg oral gavage 5 times/wk for 3 wks, nude mice

Question: For `O=C(NCCCCCCCCCC[P+](c1ccccc1)(c1ccccc1)c1ccccc1)c1nn(Cc2ccc(Cl)cc2Cl)c2ccccc12` [Mito-LON, Mito10-lonidamine], which “concentration that targets mitochondrial complexes I and II” value ([1]; FIG. 9) is on record?
Answer: 1.2 to 2.7 µM

Question: And the “fold potency compared with LON/LDN, complexes I and II” value ([1]; FIG. 9)?
Answer: over 100 fold

Question: What about the “fold potency compared with LON/LDN, complexes I and II” value ([1]; FIG. 9, listed as Mito-LDN) of the same compound?
Answer: greater than 100 fold

Question: And the IC50 ([1]; read-out: IC50, inhibition of complex I and II, pretreatment of H2030BrM3 cells)?
Answer: ~2000 nM

Question: And the “inhibition of brain metastasis of lung cancer cells” value [2]?
Answer: significant efficacy in inhibiting brain metastasis

Question: What about the caspase cleavage [3] of the same compound?
Answer: did not induce caspase cleavage

Question: And the “cleaved PARP and cytochrome c levels” value [3]?
Answer: increased levels of cleaved PARP and cytochrome c

Question: And the “Complex I versus Complex II inhibition” value (mitochondrial Complex I [4]; FIG. 7)?
Answer: inhibits Complex I more potently than Complex II

Question: And the “fold more potent than lonidamine in inhibiting Complex I activity of tumor cells” value (mitochondrial Complex I [4]; FIGS. 7 and 8)?
Answer: > 500 fold

Question: What about the IC50 (Pancreatic cancer cells; Homo sapiens, Pancreatic cancer cell, read-out: IC50, inhibiting the proliferation of cancer cells) of the same compound?
Answer: 640 nM

Question: What about the “fold more effective than LND in anti-proliferative effects” value (Pancreatic cancer cells; pancreatic cancer cells, FIG. 6) of the same compound?
Answer: ~500 fold

Question: And the “fold more potent than LON for complex I” value (mitochondrial Complex I [5]; 24 h pretreatment, FIG. 9B)?
Answer: 370 fold

Question: What about the Ki (mitochondrial Complex I [5]; FIG. 9) of the same compound?
Answer: 1200 nM

Question: And the IC50 (mitochondrial Complex I [5]; H2030BrM3 lung cancer cells, FIG. 9, read-out: IC50, respiratory complex I)?
Answer: 1200 nM

Question: And the “reduction of lymph node metastasis” value [6, 11]?
Answer: > 50%

Question: And the “reduction of tumor progression” value [6, 11]?
Answer: > 70%

Question: What about the “liver histopathology (H&E sections)” value ([6]; 7.5 μmol/kg oral gavage, 3 wks) of the same compound?
Answer: no histopathologic signs of toxicity

Question: And the “effective dose (ED)” value ([6]; designated from preliminary data (FIGS. 24 & 25))?
Answer: 7.5 µmol/kg

Question: What about the IC50 (H2030BrM3 cells [7]) of the same compound?
Answer: 700 nM

Question: What about the “fold more potent than LON for complex II” value (mitochondrial complex II; 24 h pretreatment, FIG. 9B) of the same compound?
Answer: 144 fold

Question: And the Ki (mitochondrial complex II; FIG. 9)?
Answer: 2700 nM

Question: What about the IC50 (mitochondrial complex II; H2030BrM3 lung cancer cells, FIG. 9, read-out: IC50, respiratory complex II) of the same compound?
Answer: 2700 nM

Question: And the “phosphorylated AKT levels” value [8]?
Answer: decreased phosphorylated AKT levels

Question: And the “phosphorylated ERK levels” value ([8]; confirmed by Western blots)?
Answer: decreased phosphorylated ERK levels

Question: And the “intracellular levels of 2-OH-E+ (superoxide-specific product of HE oxidation)” value (H2030BrM3 cells [9]; 0.2 μM, H2030BrM3 cells)?
Answer: increase

Question: And the “formation of diethidium (E+-E+)” value (H2030BrM3 cells [9]; H2030BrM3 cells)?
Answer: strongly induced

Question: And the “ROS generation in lung cancer cells” value (H2030BrM3 cells [9])?
Answer: stimulates ROS generation; also recorded: induced ROS generation in mitochondria; also recorded: enhanced the formation of 2-hydroxyethidium; also recorded: increased ROS generation

Question: And the “ROS generation in lung cancer cells” value (H2030BrM3 cells [9]; listed as Mito-LDN)?
Answer: stimulates ROS generation

Question: What about the inhibition at 0.6 µM [10] of the same compound?
Answer: < 10%
